Measurements taken from patent US7514426B2, “Substituted imidazol[1,5-A][1,2,4]triazolo[1,5-D][1,4]benzodiazepine derivatives” (priority 2004, dated 2009).
Like-named read-outs stand apart in the source and are kept apart here.

Experiments:
Assay in all cases: [3H]flumazenil competition binding, HEK293 cell membranes
[1] = molecular target: T1, human GABA A receptor α1β3γ2 (Homo sapiens, UniProt P14867+P18507)
T1 construct: expressed in transfected cells; host or cells: HEK293
Experimental: (§1) The affinity of compounds at GABA A receptor subtypes was measured by competition for [^3H]flumazenil (85 Ci/mmol; Roche) binding to HEK293 cells expressing rat (stably transfected) or human (transiently transfected) receptors of composition α1β3γ2, α2β3γ2, α3β3γ2 and α5βγ2.
(§2) Cell pellets were suspended in Krebs-tris buffer (4.8 mM KCl, 1.2 mM CaCl2, 1.2 mM MgCl2, 120 mM NaCl, 15 mM Tris; pH 7.5; binding assay buffer), homogenized by polytron for ca. 20 sec on ice and centrifuged for 60 min at 4° C. (50000 g; Sorvall, rotor: SM24=20000 rpm). The cell pellets were resuspended in Krebs-tris buffer and homogenized by polytron for ca. 15 sec on ice. Protein was measured (Bradford method, Bio-Rad) and aliquots of 1 mL were prepared and stored at −80° C.
(§3) Radioligand binding assays were carried out in a volume of 200 μL (96-well plates) which contained 100 μL of cell membranes, [^3H]flumazenil at a concentration of 1 nM for α1, α2, α3 subunits and 0.5 nM for α5 subunits and the test compound in the range of 10^−10-3×10^−6 M. Nonspecific binding was defined by 10^−5 M diazepam and typically represented less than 5% of the total binding. Assays were incubated to equilibrium for 1 hour at 4° C. and harvested onto GF/C uni-filters (Packard) by filtration using a Packard harvester and washing with ice-cold wash buffer (50 mM Tris; pH 7.5). After drying, filter-retained radioactivity was detected by liquid scintillation counting. Ki values were calculated using Excel-Fit (Microsoft) and are the means of two determinations.

[2] = molecular target: T2, human GABA A receptor α2β3γ2 (Homo sapiens, UniProt P18507+P47869)
T2 construct: expressed in transfected cells; host or cells: HEK293
Experimental: as §1, §2, §3

[3] = molecular target: T3, human GABA A receptor α3β3γ2 (Homo sapiens, UniProt P18507+P34903)
T3 construct: expressed in transfected cells; host or cells: HEK293
Experimental: as §1, §2, §3

[4] = molecular target: T4, human GABA A receptor α5βγ2 (Homo sapiens, UniProt P18507+P31644)
T4 construct: expressed in transfected cells; host or cells: HEK293
Experimental: as §1, §2, §3

[5] = human α1β3γ2, transiently transfected HEK293, 1 nM [3H]flumazenil, mean of two determinations, read-out: Ki[nM] hα1
[6] = human α2β3γ2, transiently transfected HEK293, 1 nM [3H]flumazenil, mean of two determinations, read-out: Ki[nM] hα2
[7] = human α3β3γ2, transiently transfected HEK293, 1 nM [3H]flumazenil, mean of two determinations, read-out: Ki[nM] hα3
[8] = human α5βγ2, transiently transfected HEK293, 0.5 nM [3H]flumazenil, mean of two determinations, read-out: Ki[nM] hα5

Structure (SMILES) | Ki [1] | Ki [2] | Ki [3] | Ki [4] | Ki [1, 5] | Ki [2, 6] | Ki [3, 7] | Ki [4, 8]
FCc1ncn2c1Cn1ncnc1-c1cc(Cl)ccc1-2 [Example 1, 3-Chloro-10-fluoromethyl-9H-imidazo[1,5-a][1,2,4]triazolo[1,5-d][1,4]benzodiazepine] | 59.1 nM | 67 nM | 40 nM | 9.4 nM | – | – | – | –
Cc1nc2n(n1)Cc1c(CF)ncn1-c1ccc(Cl)cc1-2 [Example 20, 3-Chloro-10-fluoromethyl-6-methyl-9H-imidazo[1,5-a][1,2,4]triazolo[1,5-d][1,4]benzodiazepine] | 50.1 nM | 181 nM | 117 nM | 2.5 nM | – | – | – | –
CCC(F)(F)c1ncn2c1Cn1ncnc1-c1cc(F)ccc1-2 [Example 15, 10-(1,1-Difluoro-propyl)-3-fluoro-9H-imidazo[1,5-a][1,2,4]triazolo[1,5-d][1,4]benzodiazepine] | 15 nM | 11.3 nM | 8.9 nM | 3.2 nM | – | – | – | –
FCc1ncn2c1Cn1ncnc1-c1cc(Br)ccc1-2 [Example 6, 3-Bromo-10-fluoromethyl-9H-imidazo[1,5-a][1,2,4]triazolo[1,5-d][1,4]benzodiazepine] | 215 nM | 261 nM | 108 nM | 8.7 nM | – | – | – | –
FC(F)c1ncn2c1Cn1ncnc1-c1cc(Cc3ccccc3)ccc1-2 [Example 11, 3-Benzyl-10-difluoromethyl-9H-imidazo[1,5-a][1,2,4]triazolo[1,5-d][1,4]benzodiazepine] | – | – | – | 26.4 nM | 455 nM | 904 nM | 488 nM | –
FC(F)c1ncn2c1Cn1ncnc1-c1cc(Cl)ccc1-2 [Example 2, 3-Chloro-10-difluoromethyl-9H-imidazo[1,5-a][1,2,4]triazolo[1,5-d][1,4]benzodiazepine] | 52.9 nM | 81.3 nM | 47.9 nM | 5.6 nM | – | – | – | –
N#Cc1ccc2c(c1)-c1ncnn1Cc1c(C(F)F)ncn1-2 [Example 13, 3-Cyano-10-difluoromethyl-9H-imidazo[1,5-a][1,2,4]triazolo[1,5-d][1,4]benzodiazepine] | 246 nM | 246 nM | 106 nM | 16.5 nM | – | – | – | –
C#Cc1ccc2c(c1)-c1ncnn1Cc1c(C(F)F)ncn1-2 [Example 12, 10-Difluoromethyl-3-ethynyl-9H-imidazo[1,5-a][1,2,4]triazolo[1,5-d][1,4]benzodiazepine] | – | – | – | 16.9 nM | 1460 nM | 416 nM | 512 nM | –
FC(F)c1ncn2c1Cn1ncnc1-c1cc(Br)ccc1-2 [Example 7, 3-Bromo-10-difluoromethyl-9H-imidazo[1,5-a][1,2,4]triazolo[1,5-d][1,4]benzodiazepine] | – | – | – | – | 174 nM | 185 nM | 79.6 nM | 4.6 nM
COc1ccc(-c2nc3n(n2)Cc2c(CF)ncn2-c2ccc(Cl)cc2-3)cc1OC [Example 21, 3-Chloro-6-(3,4-dimethoxyphenyl)-10-fluoromethyl-9H-imidazo[1,5-a][1,2,4]triazolo[1,5-d][1,4]benzodiazepine] | – | – | – | – | > 3160 nM | > 3160 nM | > 3160 nM | 152 nM
CCC(F)c1ncn2c1Cn1ncnc1-c1cc(Br)ccc1-2 (stereo not drawn) [Example 18, 3-Bromo-10-(1-fluoro-propyl)-9H-imidazo[1,5-a][1,2,4]triazolo[1,5-d][1,4]benzodiazepine] | – | – | – | 37.5 nM | 787 nM | 764 nM | 650 nM | –
Fc1ccc2c(c1)-c1ncnn1Cc1c(C(F)F)ncn1-2 [Example 4, 3-Fluoro-10-difluoromethyl-9H-imidazo[1,5-a][1,2,4]triazolo[1,5-d][1,4]benzodiazepine] | 34.4 nM | 14.4 nM | 15.6 nM | 6.8 nM | – | – | – | –
CCC(F)(F)c1ncn2c1Cn1ncnc1-c1cc(Br)ccc1-2 [Example 19, 3-Bromo-10-(1,1-difluoro-propyl)-9H-imidazo[1,5-a][1,2,4]triazolo[1,5-d][1,4]benzodiazepine] | 32.9 nM | – | 77.2 nM | 6.4 nM | – | 147 nM | – | –
FCc1ncn2c1Cn1ncnc1-c1cc(F)ccc1-2 [Example 3, 3-Fluoro-10-fluoromethyl-9H-imidazo[1,5-a][1,2,4]triazolo[1,5-d][1,4]benzodiazepine] | 49.9 nM | 25.4 nM | 26.2 nM | 9.1 nM | – | – | – | –
Fc1ccc2c(c1)-c1ncnn1Cc1c(C(F)(F)F)ncn1-2 [Example 5, 3-Fluoro-10-trifluoromethyl-9H-imidazo[1,5-a][1,2,4]triazolo[1,5-d][1,4]benzodiazepine] | 39 nM | 23.9 nM | 27.7 nM | 7 nM | – | – | – | –
FC(F)c1ncn2c1Cn1ncnc1-c1cc(N3CCOCC3)ccc1-2 [Example 17, 3-Morpholin-4-yl-10-difluoromethyl-9H-imidazo[1,5-a][1,2,4]triazolo[1,5-d][1,4]benzodiazepine] | – | – | – | – | 1870 nM | > 3160 nM | > 3160 nM | 272 nM
CC(F)(F)c1ncn2c1Cn1ncnc1-c1cc(F)ccc1-2 [Example 14, 10-(1,1-Difluoro-ethyl)-3-fluoro-9H-imidazo[1,5-a][1,2,4]triazolo[1,5-d][1,4]benzodiazepine] | – | 98.8 nM | 73.5 nM | 26.6 nM | 163 nM | – | – | –
CCc1ccc2c(c1)-c1ncnn1Cc1c(C(F)F)ncn1-2 [Example 10, 10-Difluoromethyl-3-ethyl-9H-imidazo[1,5-a][1,2,4]triazolo[1,5-d][1,4]benzodiazepine] | – | – | – | 31.7 nM | 272 nM | 624 nM | 480 nM | –
FCc1ncn2c1Cn1ncnc1-c1cc(C3CC3)ccc1-2 [Example 8, 3-Cyclopropyl-10-fluoromethyl-9H-imidazo[1,5-a][1,2,4]triazolo[1,5-d][1,4]benzodiazepine] | 272 nM | 276 nM | 270 nM | 14.7 nM | – | – | – | –
FC(F)c1ncn2c1Cn1ncnc1-c1cc(C3CC3)ccc1-2 [Example 9, 3-Cyclopropyl-10-difluoromethyl-9H-imidazo[1,5-a][1,2,4]triazolo[1,5-d][1,4]benzodiazepine] | – | – | – | 13.3 nM | 216 nM | 160 nM | 192 nM | –
FC(F)c1ncn2c1Cn1ncnc1-c1ccccc1-2 [Example 16, 10-Difluoromethyl-9H-imidazo[1,5-a][1,2,4]triazolo[1,5-d][1,4]benzodiazepine] | 28.3 nM | 13.9 nM | 10.5 nM | 1.6 nM | – | – | – | –
